The record followed here is PMC12683216, “Using High‐Throughput Screening to Identify Crosslinking Peptides That Control Cell‐Mediated Matrix Degradation” (Advanced Healthcare Materials, 2025).

What all share (type): in vitro ADME, human
Holding throughout (conditions): human, 24 h, LC-MS

A short description of data set [1]: Soluble peptide degradation, Cells condition (LC-MS). The method, then:
(§1) Most in vitro protease activity assays incubate the peptides or proteins of interest with a single protease in a buffered solution. However, the kinetics of protease activity in tissues are complex and highly regulated, and both the activity^[ [37] ^] and substrate specificity^[ [38] ^] of proteases can be modulated through association with other proteins.^[ [39] ^] Most MMP‐substrate peptides are also cleaved by multiple proteases,^[ [5] ^] and within the context of biomaterials, the most important factor is typically how the combined activity of all proteases, rather than the activity of any specific protease, modifies the local microenvironment versus the activity due to any individual enzyme. We synthesized peptides identified in the TAILS proteomic screen that were present on proteins that are known to be secreted or found on the cell membrane, pooled them, and added them either to cell culture media on top of cells, the “Cells” condition, or conditioned media lacking cells, the “Media” condition (Figure 2A). The fraction of peptides remaining after 24 h in each condition was then quantified using LC‐MS. Soluble proteases should be present in both conditions, however, membrane‐type proteases should primarily be found in the samples containing cells and not the conditioned media samples. A key benefit of this approach is that it surveys the total functional proteolytic activity, including the effects of inhibitors and co‐factors, and quantifies the degradation rate of soluble peptides by the complete secretome of different cell types.
(§2) hUVECs (75000 per well) or hMSCs (36000 per well) were seeded into a 48 well plate, and 500 µL media was added to the wells. […] The peptide libraries were dissolved at a stock solution of 10 mM total peptide content. For libraries containing 38 peptides, 95 µL of the stock solution was added to each well; for libraries with 19 peptides, 47.5 µL was added to each well, and media was taken at 0 and 24 h. Add 4 µL of acetic acid to all collected media in the LC‐MS plates and store them in a −80 °C freezer to prevent further proteolytic degradation. From each sample, 10 µL of crude solution was introduced by the LC‐MS through a Thermo Scientific Vanquish LC System (Thermo Fisher Scientific), which outputted to a Thermo Scientific LTQ XL Linear Ion Trap Mass Spectrometer (Thermo Fisher Scientific). The sampled mixture was trapped on a column (ProntoSIL C18 AQ, 120 Å, 3 µm, 2.0 x 50 mm HPLC Column, PN 0502F184PS030, MAC‐MOD Analytical Inc.). The samples were loaded onto the column with a solvent containing acetonitrile/water, 5:95 (v/v) containing 1% acetic acid at a flow rate of 300 µL min^−1 and held for 1 min. The sample was then eluted from the column with a linear gradient of 5–40% Solvent B (1% acetic acid in acetonitrile) at the same flow rate for 5 min. This was followed by a 1 min ramp up to 100% Solvent B, where it was re‐equilibrated with Solvent A (1% acetic acid) to 5% solvent B over the course of 1 min and held there for 2 min. The column temperature was kept at a constant 29 °C, and the mass spectrometer was operated in positive ion mode. Using a Heated ESI, the Source Voltage was set to 4.1 kV, and the capillary temperature was 350 °C. For non‐library degradation studies, 2.5 µL of 10 mM peptide stock solution for each peptide was added.
In the MMP‐14 inhibitor study, the MMP‐14 inhibitor NSC 405 020 (Cayman Chemical Company) was dissolved in DMSO to make a 10 mM stock solution and stored in −20 °C freezer. 0.5 µL MMP‐14 inhibitor stock solution was added to each well to achieve a 10 µM final concentration.
For all degradation studies using soluble peptides, a non‐proteolytically degradable NH2‐βFβAβAβAβAβAβA‐amide (βFβA6) peptide, where βF is β‐phenylalanine and βA is β‐alanine, was added at a 50 µM concentration and used as an internal standard. Peptide degradation ratios were measured by LC‐MS and analyzed by Xcalibur. […]

A short description of data set [2]: Soluble peptide degradation, Media condition (cell-conditioned media, LC-MS). The method, then: as §1, §2
(§3) To assess the activity of the conditioned media, the media were divided into two equal portions. One portion was used for a standard degradation study, while the other was cultured for an additional 24 h before the PanMMP and KLVADLMASAE were added. After 24 h of incubation, the media were collected for further analysis. To assess the impact of recombinant MMP‐14 on PanMMP and KLVADLMASAE, recombinant MMP‐14 (antibodies.com) was dissolved in the media at a concentration of 0.5 nM. The remaining steps followed the standard degradation study protocol. […]

Test in data set [3]: as above
The method, then:
as §1, §2, §3
This is another data set of the same source.

The mark [4] stands for this setting: hMSCs in culture with fresh media (Cells condition), Figure 3B heatmap, split-and-pool libraries KLVADX1X2ASAE (19 or 38 peptides per library) in media on hMSCs, ratio to βFβA6, N = 2, read-out: Fraction of peptide remaining after 24 hours: hMSC Cells.
Setting [5] is: hUVECs in culture with fresh media (Cells condition), Figure 3B heatmap, split-and-pool libraries KLVADX1X2ASAE in media on hUVECs, ratio to βFβA6, N = 2, read-out: Fraction of peptide remaining after 24 hours: hUVEC Cells.
The mark [6] stands for this setting: hUVEC-conditioned media without cells (Media condition), Figure 3B heatmap, split-and-pool libraries KLVADX1X2ASAE in hUVEC-conditioned media without cells, ratio to βFβA6, N = 2, read-out: Fraction of peptide remaining after 24 hours: hUVEC Media.
Where [7] appears, read: hMSC-conditioned media without cells (Media condition), Figure 3B heatmap, split-and-pool libraries KLVADX1X2ASAE in hMSC-conditioned media without cells, ratio to βFβA6, N = 2, read-out: Fraction of peptide remaining after 24 hours: hMSC Media.
Where [8] appears, read: hMSCs in culture with fresh media (Cells condition), Figure 2B heatmap, pooled TAILS-derived soluble peptides (Ac-βAla N-terminus, βAla-amide C-terminus) in media on hMSCs (36000 per well, 48 well plate, 500 µL), ratio to βFβA6 internal standard, 24 h / 0 h, N = 5, read-out: Fraction of peptide remaining at 24 hours: hMSC Cells.
[9] abbreviates: hUVECs in culture with fresh media (Cells condition), Figure 2B heatmap, pooled TAILS-derived soluble peptides in media on hUVECs (75000 per well, 48 well plate, 500 µL), ratio to βFβA6 internal standard, 24 h / 0 h, N = 5, read-out: Fraction of peptide remaining at 24 hours: hUVEC Cells.
[10] abbreviates: Figure 2B heatmap, pooled TAILS-derived soluble peptides in 24 h hUVEC-conditioned media without cells, ratio to βFβA6 internal standard, 24 h / 0 h, N = 5, read-out: Fraction of peptide remaining at 24 hours: hUVEC Media.
The mark [11] stands for this setting: Figure 2B heatmap, pooled TAILS-derived soluble peptides in 24 h hMSC-conditioned media without cells, ratio to βFβA6 internal standard, 24 h / 0 h, N = 5, read-out: Fraction of peptide remaining at 24 hours: hMSC Media.

Where a SMILES comes first, the peptide text is derived from it. [ ]: non-standard residue; d: D form. βAla = NCCC(=O)O

On to `CC[C@H](C)[C@H](NC(=O)[C@H](Cc1ccc(O)cc1)NC(=O)[C@H](CC(=O)O)NC(=O)[C@H](C)NC(=O)[C@@H](NC(=O)[C@H](CC(C)C)NC(=O)[C@H](CCCCN)NC(=O)CCNC(C)=O)C(C)C)C(=O)N[C@@H](C)C(=O)N[C@@H](CO)C(=O)N[C@@H](C)C(=O)N[C@@H](CCC(=O)O)C(=O)NCCC(N)=O` [Tyr-Ile] (Ac-[βAla]KLVADYIASAE[βAla]-NH2), for which the fraction remaining at 24 h in data set [1] (setting [4]) was found to be 43%; in data set [1] (setting [5]), 86%; in data set [2] (setting [6]), 92%; in data set [3] (setting [7]) it was 76%.

As for `CC(=O)NCCC(=O)N[C@@H](CCCCN)C(=O)N[C@@H](CC(C)C)C(=O)N[C@H](C(=O)N[C@@H](C)C(=O)N[C@@H](CC(=O)O)C(=O)N1CCC[C@H]1C(=O)N[C@@H](Cc1ccccc1)C(=O)N[C@@H](C)C(=O)N[C@@H](CO)C(=O)N[C@@H](C)C(=O)N[C@@H](CCC(=O)O)C(=O)NCCC(N)=O)C(C)C` [Pro-Phe] (Ac-[βAla]KLVADPFASAE[βAla]-NH2), the fraction remaining at 24 h in data set [1] (setting [4]) worked out at 41%; in data set [1] (setting [5]) it was 84%; in data set [2] (setting [6]), 97%; in data set [3] (setting [7]), 73%.

Consider `CC(=O)NCCC(=O)N[C@@H](CCC(=O)O)C(=O)N[C@@H](CO)C(=O)N[C@@H](CO)C(=O)N[C@@H](Cc1c[nH]cn1)C(=O)N[C@@H](CC(N)=O)C(=O)N[C@H](C(=O)N[C@@H](Cc1ccc(O)cc1)C(=O)N[C@@H](CC(C)C)C(=O)N[C@H](C(=O)N[C@@H](CCC(N)=O)C(=O)NCCC(N)=O)[C@@H](C)O)[C@@H](C)O` [ESSHNTYLTQ] (Ac-[βAla]ESSHNTYLTQ[βAla]-NH2), for which the fraction remaining at 24 h in data set [1] (setting [8]) is 88%; in data set [1] (setting [9]), 100%; in data set [2] (setting [10]), 102%; in data set [3] (setting [11]) it was 98%.

Consider `CC[C@H](C)[C@H](NC(=O)[C@H](Cc1c[nH]cn1)NC(=O)[C@H](CCC(=O)O)NC(=O)[C@@H]1CCCN1C(=O)[C@H](Cc1ccccc1)NC(=O)[C@H](CC(N)=O)NC(=O)CCNC(C)=O)C(=O)N[C@@H](Cc1ccccc1)C(=O)N1CCC[C@H]1C(=O)N[C@@H](C)C(=O)N[C@@H](CC(C)C)C(=O)N[C@@H](C)C(=O)NCCC(N)=O` [NFPEHIFPALA] (Ac-[βAla]NFPEHIFPALA[βAla]-NH2), for which the values for the amount remaining at 24 h in data set [1] (setting [8]), in data set [2] (setting [10]) and in data set [3] (setting [11]) were 73%, 99% and 92%, respectively.

As for `CC(=O)NCCC(=O)N[C@@H](CCCCN)C(=O)N[C@@H](CC(C)C)C(=O)N[C@H](C(=O)N[C@@H](C)C(=O)N[C@@H](CC(=O)O)C(=O)N[C@@H](CO)C(=O)N[C@@H](Cc1c[nH]c2ccccc12)C(=O)N[C@@H](C)C(=O)N[C@@H](CO)C(=O)N[C@@H](C)C(=O)N[C@@H](CCC(=O)O)C(=O)NCCC(N)=O)C(C)C` [Ser-Trp] (Ac-[βAla]KLVADSWASAE[βAla]-NH2), the fraction remaining at 24 h in data set [1] (setting [4]) turned out to be 40%; in data set [1] (setting [5]), 86%; in data set [2] (setting [6]), 95%; in data set [3] (setting [7]), 72%.

Consider `CC[C@H](C)[C@H](NC(=O)[C@H](CCCCN)NC(=O)[C@@H](NC(=O)[C@H](CO)NC(=O)[C@H](CO)NC(=O)[C@@H]1CCCN1C(=O)CCNC(C)=O)[C@@H](C)CC)C(=O)N[C@@H](CCCCN)C(=O)N[C@@H](CO)C(=O)N[C@@H](C)C(=O)N[C@@H](CC(=O)O)C(=O)N[C@@H](CCCCN)C(=O)NCCC(N)=O` [PSSIKIKSADK] (Ac-[βAla]PSSIKIKSADK[βAla]-NH2), for which the share remaining at 24 h in data set [1] (setting [8]) came out at 81%; in data set [1] (setting [9]), 86%; in data set [2] (setting [10]), 93%; in data set [3] (setting [11]), 90%.

As for `CSCC[C@H](NC(=O)[C@H](CC(=O)O)NC(=O)[C@H](C)NC(=O)[C@@H](NC(=O)[C@H](CC(C)C)NC(=O)[C@H](CCCCN)NC(=O)CCNC(C)=O)C(C)C)C(=O)N[C@@H](C)C(=O)N[C@@H](C)C(=O)N[C@@H](CO)C(=O)N[C@@H](C)C(=O)N[C@@H](CCC(=O)O)C(=O)NCCC(N)=O` [Met-Ala] (Ac-[βAla]KLVADMAASAE[βAla]-NH2), the amount remaining at 24 h amounted to 38% in data set [1] (setting [4]), 88% in data set [1] (setting [5]), 97% in data set [2] (setting [6]) and 61% in data set [3] (setting [7]).

Regarding `CC(=O)NCCC(=O)N1CCC[C@H]1C(=O)N1CCC[C@H]1C(=O)N[C@@H](CO)C(=O)N[C@@H](CCCNC(=N)N)C(=O)N[C@@H](Cc1c[nH]cn1)C(=O)N[C@@H](CC(=O)O)C(=O)N[C@H](C(=O)NCC(=O)N[C@H](C(=O)N1CCC[C@H]1C(=O)NCCC(N)=O)[C@@H](C)O)[C@@H](C)O` [PPSRHDTGTP] (Ac-[βAla]PPSRHDTGTP[βAla]-NH2), the fraction remaining at 24 h is 100% in data set [1] (setting [8]), 103% in data set [1] (setting [9]), 104% in data set [2] (setting [10]) and 87% in data set [3] (setting [11]).

For the compound `CC(=O)NCCC(=O)N[C@@H](CCCCN)C(=O)N[C@@H](CC(C)C)C(=O)N[C@H](C(=O)N[C@@H](C)C(=O)N[C@@H](CC(=O)O)C(=O)NCC(=O)N[C@@H](Cc1ccc(O)cc1)C(=O)N[C@@H](C)C(=O)N[C@@H](CO)C(=O)N[C@@H](C)C(=O)N[C@@H](CCC(=O)O)C(=O)NCCC(N)=O)C(C)C` [Gly-Tyr] (Ac-[βAla]KLVADGYASAE[βAla]-NH2), the amount remaining at 24 h in data set [1] (setting [4]) was 48%; in data set [1] (setting [5]), 88%; in data set [2] (setting [6]), 100%; in data set [3] (setting [7]), 74%.
